PMC6576746, “Rational discovery of dual-indication multi-target PDE/Kinase inhibitor for precision anti-cancer therapy using structural systems pharmacology” (PLoS Computational Biology, 2019)

What was measured:
Test in all cases: biochemical
Parameters in all cases: DiscoverX KinomeScan competition binding assay across human kinases; per cent of control at 10 and 100 uM
PAK7 = target: T1, PAK7 (Homo sapiens, UniProt Q9P286); settings: competition binding, % of control; read-out: Percent Control (100 uM Levosimendan)
T1 construct: gene PAK5
Method in brief: (§1)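 Binding is expressed as %control, normalised between positive and negative control signals. The compound (levosimendan) was tested at 10 μM and 100 μM in the DiscoverX KinomeScan competition binding format against human kinases.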

CDK3 = CDK3 (Homo sapiens, UniProt Q00526); settings: competition binding, % of control; read-out: Percent Control (100 uM Levosimendan)
Method in brief: as §1

[1] = target: T2, RSK1(Kin.Dom.1-N-terminal) (Homo sapiens, UniProt Q15418); settings: competition binding, % of control; read-out: Percent Control (100 uM Levosimendan)
T2 construct: gene RPS6KA1; Kin.Dom.1-N-terminal
Method in brief: as §1

ACVR2B = ACVR2B (Homo sapiens, UniProt Q13705); settings: competition binding, % of control; read-out: Percent Control (100 uM Levosimendan)
Method in brief: as §1

HIPK1 = HIPK1 (Homo sapiens, UniProt Q86Z02); settings: competition binding, % of control
Method in brief: as §1

ABL1-phosphorylated = target: T3, ABL1-phosphorylated (Homo sapiens, UniProt P00519); settings: competition binding, % of control
T3 construct: phosphorylated
Method in brief: as §1

IKK-alpha = target: T4, IKK-alpha (Homo sapiens, UniProt O15111); settings: competition binding, % of control; read-out: Percent Control (100 uM Levosimendan)
T4 construct: gene CHUK
Method in brief: as §1

CAMK2A = CAMK2A (Homo sapiens, UniProt Q9UQM7); settings: competition binding, % of control; read-out: Percent Control (100 uM Levosimendan)
Method in brief: as §1

PKMYT1 = PKMYT1 (Homo sapiens, UniProt Q99640); settings: competition binding, % of control; read-out: Percent Control (100 uM Levosimendan)
Method in brief: as §1

[2] = target: T5, ABL1(Q252H)-phosphorylated (Homo sapiens, UniProt P00519, Q252H); settings: competition binding, % of control; read-out: Percent Control (100 uM Levosimendan)
T5 construct: phosphorylated
Method in brief: as §1

SYK = SYK (Homo sapiens, UniProt P43405); settings: competition binding, % of control; read-out: Percent Control (100 uM Levosimendan)
Method in brief: as §1

PIK3C2G = PIK3C2G (Homo sapiens, UniProt O75747); settings: competition binding, % of control; read-out: Percent Control (100 uM Levosimendan)
Method in brief: as §1

ARK5 = target: T6, ARK5 (Homo sapiens, UniProt O60285); settings: competition binding, % of control; read-out: Percent Control (100 uM Levosimendan)
T6 construct: gene NUAK1
Method in brief: as §1

OSR1 = target: T7, OSR1 (Homo sapiens, UniProt O95747); settings: competition binding, % of control; read-out: Percent Control (100 uM Levosimendan)
T7 construct: gene OXSR1
Method in brief: as §1

GRK4 = GRK4 (Homo sapiens, UniProt P32298); settings: competition binding, % of control; read-out: Percent Control (100 uM Levosimendan)
Method in brief: as §1

MKNK2 = MKNK2 (Homo sapiens, UniProt Q9HBH9); settings: competition binding, % of control
Method in brief: as §1

p38-alpha = target: T8, p38-alpha (Homo sapiens, UniProt Q16539); settings: competition binding, % of control; read-out: Percent Control (100 uM Levosimendan)
T8 construct: gene MAPK14
Method in brief: as §1

ACVR2A = ACVR2A (Homo sapiens, UniProt P27037); settings: competition binding, % of control
Method in brief: as §1

AKT1 = AKT1 (Homo sapiens, UniProt P31749); settings: competition binding, % of control; read-out: Percent Control (100 uM Levosimendan)
Method in brief: as §1

[3] = read-out: Percent Control (10 uM Levosimendan)
[4] = read-out: Percent Control (100 uM Levosimendan)

Sequence of HIPK1 (Q86Z02 whole entry): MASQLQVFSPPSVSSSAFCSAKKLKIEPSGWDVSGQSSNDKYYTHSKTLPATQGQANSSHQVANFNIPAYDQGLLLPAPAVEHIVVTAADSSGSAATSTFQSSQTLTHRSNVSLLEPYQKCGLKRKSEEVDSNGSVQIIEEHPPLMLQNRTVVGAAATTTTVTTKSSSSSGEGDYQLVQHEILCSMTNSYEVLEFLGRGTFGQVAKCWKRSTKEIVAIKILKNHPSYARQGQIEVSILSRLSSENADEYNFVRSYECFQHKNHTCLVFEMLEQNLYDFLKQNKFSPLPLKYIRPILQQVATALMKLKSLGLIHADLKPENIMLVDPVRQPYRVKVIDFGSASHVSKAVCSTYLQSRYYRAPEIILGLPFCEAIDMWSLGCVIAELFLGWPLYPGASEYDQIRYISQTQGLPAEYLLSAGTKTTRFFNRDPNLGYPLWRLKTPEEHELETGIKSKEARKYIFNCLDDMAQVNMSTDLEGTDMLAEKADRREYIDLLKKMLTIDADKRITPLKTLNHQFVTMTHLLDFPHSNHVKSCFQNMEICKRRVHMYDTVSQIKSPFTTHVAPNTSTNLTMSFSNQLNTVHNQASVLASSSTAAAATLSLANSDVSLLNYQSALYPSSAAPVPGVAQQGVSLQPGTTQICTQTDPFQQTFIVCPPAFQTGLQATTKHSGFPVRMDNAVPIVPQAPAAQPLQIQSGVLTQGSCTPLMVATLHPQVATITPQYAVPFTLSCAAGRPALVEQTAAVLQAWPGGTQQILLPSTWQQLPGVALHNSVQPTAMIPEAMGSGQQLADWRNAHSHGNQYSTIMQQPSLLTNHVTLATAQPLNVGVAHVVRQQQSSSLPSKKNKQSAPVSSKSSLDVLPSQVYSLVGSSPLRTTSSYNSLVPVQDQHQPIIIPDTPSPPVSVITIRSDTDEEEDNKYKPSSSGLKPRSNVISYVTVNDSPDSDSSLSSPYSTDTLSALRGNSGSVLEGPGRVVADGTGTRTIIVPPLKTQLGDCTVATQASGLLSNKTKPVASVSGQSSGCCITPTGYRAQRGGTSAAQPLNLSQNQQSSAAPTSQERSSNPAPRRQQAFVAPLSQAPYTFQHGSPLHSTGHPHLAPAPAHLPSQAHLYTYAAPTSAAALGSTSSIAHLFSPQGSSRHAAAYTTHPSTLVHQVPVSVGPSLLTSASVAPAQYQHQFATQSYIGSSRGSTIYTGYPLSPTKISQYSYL
Sequence of MKNK2 (Q9HBH9 whole entry): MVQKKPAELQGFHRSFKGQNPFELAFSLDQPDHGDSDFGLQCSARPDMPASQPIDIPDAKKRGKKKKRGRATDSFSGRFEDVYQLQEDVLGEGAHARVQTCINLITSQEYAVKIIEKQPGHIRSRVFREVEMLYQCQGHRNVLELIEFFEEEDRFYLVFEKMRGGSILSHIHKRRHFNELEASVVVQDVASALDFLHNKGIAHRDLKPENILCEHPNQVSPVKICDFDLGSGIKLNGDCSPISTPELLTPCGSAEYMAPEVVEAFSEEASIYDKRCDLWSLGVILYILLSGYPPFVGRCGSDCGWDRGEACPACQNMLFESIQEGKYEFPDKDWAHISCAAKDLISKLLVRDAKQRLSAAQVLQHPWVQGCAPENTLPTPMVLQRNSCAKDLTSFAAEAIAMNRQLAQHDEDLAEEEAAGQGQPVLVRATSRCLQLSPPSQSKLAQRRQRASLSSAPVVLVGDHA
Sequence of ACVR2A (P27037 whole entry): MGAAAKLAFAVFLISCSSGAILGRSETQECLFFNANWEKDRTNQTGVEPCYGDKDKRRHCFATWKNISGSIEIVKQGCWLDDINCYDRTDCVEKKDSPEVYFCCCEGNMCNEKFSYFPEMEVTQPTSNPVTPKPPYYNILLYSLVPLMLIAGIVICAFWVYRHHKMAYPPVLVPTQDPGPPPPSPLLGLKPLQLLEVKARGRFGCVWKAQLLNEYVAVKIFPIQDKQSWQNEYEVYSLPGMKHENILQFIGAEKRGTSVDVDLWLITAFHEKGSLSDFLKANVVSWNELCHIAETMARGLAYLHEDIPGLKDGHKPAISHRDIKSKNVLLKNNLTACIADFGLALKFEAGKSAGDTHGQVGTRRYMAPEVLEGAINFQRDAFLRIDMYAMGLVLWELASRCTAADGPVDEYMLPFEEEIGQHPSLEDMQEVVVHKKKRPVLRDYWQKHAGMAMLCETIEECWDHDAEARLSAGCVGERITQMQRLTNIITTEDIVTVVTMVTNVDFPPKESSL
T2 sequence (Q15418 whole entry): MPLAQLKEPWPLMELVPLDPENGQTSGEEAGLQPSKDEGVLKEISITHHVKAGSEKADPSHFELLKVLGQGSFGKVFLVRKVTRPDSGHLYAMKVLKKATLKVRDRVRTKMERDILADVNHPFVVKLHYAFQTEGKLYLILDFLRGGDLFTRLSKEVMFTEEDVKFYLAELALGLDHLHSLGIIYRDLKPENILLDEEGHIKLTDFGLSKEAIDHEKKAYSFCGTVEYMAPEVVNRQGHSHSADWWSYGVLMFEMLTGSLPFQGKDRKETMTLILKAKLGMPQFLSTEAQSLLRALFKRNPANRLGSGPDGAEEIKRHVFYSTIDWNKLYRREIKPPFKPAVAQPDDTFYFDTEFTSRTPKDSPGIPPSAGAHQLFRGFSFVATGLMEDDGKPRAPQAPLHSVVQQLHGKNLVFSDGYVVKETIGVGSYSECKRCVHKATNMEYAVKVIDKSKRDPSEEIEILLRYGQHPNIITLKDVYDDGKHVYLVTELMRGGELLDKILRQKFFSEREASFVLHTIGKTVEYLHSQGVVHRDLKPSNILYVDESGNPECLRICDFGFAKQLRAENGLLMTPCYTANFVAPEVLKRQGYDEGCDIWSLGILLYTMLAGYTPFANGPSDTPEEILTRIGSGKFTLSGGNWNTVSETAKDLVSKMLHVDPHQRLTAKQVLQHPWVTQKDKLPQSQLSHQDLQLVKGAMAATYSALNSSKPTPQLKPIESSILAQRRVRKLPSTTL
Sequence of PKMYT1 (Q99640 whole entry): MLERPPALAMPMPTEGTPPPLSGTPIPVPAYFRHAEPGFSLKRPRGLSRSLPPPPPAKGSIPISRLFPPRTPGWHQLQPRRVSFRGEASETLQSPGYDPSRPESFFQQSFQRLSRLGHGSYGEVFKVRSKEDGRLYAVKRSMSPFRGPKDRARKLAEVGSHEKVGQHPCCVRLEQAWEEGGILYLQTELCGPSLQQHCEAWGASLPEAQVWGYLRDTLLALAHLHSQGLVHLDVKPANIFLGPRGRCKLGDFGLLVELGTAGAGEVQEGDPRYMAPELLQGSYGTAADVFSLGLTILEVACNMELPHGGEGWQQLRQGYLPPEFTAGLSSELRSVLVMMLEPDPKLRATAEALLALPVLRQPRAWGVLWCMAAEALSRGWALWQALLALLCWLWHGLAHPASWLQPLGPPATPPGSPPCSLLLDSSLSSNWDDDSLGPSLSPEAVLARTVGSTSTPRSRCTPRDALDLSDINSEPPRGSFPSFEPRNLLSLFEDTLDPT
T1 sequence (Q9P286 whole entry): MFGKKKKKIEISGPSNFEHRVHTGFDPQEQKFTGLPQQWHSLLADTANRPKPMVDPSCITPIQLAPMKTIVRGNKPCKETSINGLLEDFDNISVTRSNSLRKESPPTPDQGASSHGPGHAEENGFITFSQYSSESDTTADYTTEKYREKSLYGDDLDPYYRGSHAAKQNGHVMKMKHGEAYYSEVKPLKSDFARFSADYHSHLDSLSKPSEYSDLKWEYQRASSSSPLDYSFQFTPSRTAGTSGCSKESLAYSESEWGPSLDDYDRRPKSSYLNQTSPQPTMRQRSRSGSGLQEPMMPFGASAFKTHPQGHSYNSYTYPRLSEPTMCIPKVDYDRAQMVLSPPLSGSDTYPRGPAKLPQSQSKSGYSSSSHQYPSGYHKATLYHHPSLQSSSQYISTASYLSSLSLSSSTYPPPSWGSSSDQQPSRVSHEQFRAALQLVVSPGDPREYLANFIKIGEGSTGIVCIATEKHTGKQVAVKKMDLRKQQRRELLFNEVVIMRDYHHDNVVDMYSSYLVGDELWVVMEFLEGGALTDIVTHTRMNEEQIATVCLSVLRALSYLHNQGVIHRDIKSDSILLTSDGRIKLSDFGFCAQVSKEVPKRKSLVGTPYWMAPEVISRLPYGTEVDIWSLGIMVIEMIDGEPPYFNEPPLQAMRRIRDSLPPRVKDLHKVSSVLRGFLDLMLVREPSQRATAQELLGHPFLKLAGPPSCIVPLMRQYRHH
T7 sequence (O95747 whole entry): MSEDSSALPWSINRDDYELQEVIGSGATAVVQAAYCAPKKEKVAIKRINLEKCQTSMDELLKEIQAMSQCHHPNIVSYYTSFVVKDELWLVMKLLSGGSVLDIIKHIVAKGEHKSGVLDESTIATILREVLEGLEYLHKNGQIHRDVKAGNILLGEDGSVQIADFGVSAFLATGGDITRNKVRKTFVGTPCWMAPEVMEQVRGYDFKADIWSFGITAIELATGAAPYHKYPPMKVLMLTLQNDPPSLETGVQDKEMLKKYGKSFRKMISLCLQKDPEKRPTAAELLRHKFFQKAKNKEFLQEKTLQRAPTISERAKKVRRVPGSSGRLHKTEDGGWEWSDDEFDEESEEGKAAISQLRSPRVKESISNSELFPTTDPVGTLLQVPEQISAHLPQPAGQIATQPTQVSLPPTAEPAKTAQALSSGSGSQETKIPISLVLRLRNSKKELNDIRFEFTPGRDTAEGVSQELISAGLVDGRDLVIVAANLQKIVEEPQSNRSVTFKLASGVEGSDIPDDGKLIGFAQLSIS
T8 sequence (Q16539 whole entry): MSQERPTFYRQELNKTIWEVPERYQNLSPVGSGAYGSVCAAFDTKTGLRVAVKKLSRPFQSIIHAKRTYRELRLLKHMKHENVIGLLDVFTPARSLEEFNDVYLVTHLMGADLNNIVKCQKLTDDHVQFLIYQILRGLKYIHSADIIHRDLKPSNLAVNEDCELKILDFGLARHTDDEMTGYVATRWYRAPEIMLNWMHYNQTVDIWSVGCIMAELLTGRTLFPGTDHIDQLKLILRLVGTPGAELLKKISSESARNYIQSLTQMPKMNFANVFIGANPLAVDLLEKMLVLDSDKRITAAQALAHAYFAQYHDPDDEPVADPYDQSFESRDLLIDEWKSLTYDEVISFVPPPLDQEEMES

remaining binding at 100 µM (PAK7): 79% | remaining binding at 100 µM (CDK3): 100% | remaining binding at 100 µM [1]: 84% | remaining binding at 100 µM (ACVR2B): 100% | remaining binding at 10 µM (HIPK1; [3]): 95% | remaining binding at 100 µM (HIPK1; [4]): 20% | remaining binding at 10 µM (ABL1-phosphorylated; [3]): 100% | remaining binding at 100 µM (ABL1-phosphorylated; [4]): 37% | remaining binding at 100 µM (IKK-alpha): 59% | remaining binding at 100 µM (CAMK2A): 73% | remaining binding at 100 µM (PKMYT1): 57% | remaining binding at 100 µM [2]: 68% | remaining binding at 100 µM (SYK): 78% | remaining binding at 100 µM (PIK3C2G): 100% | remaining binding at 100 µM (ARK5): 100% | remaining binding at 100 µM (OSR1): 100% | remaining binding at 100 µM (GRK4): 100% | remaining binding at 10 µM (MKNK2; [3]): 59% | remaining binding at 100 µM (MKNK2; [4]): 7.5% | remaining binding at 100 µM (p38-alpha): 97% | remaining binding at 10 µM (ACVR2A; [3]): 100% | remaining binding at 100 µM (ACVR2A; [4]): 46% | remaining binding at 100 µM (AKT1): 56%
Compound: C[C@@H]1CC(=O)NN=C1c1ccc(NN=C(C#N)C#N)cc1 [levosimendan]
